In patent US20090298783A1, “Cosmetic Compositions” (Cognis IPanagement GmbH, priority 2006, published 2009):
Marks after values point to notes of the source that are not given here.

How the values were obtained:
GMCSF = experiment: Nickel-induced GMCSF release from human keratinocytes (ELISA); type: cell-based; conditions: 48 hours
Procedure: (§1) The soothing potential of silybin, piperin, rhapontin, nortrachelogenine and arctiin was evaluated on primary culture of human keratinocytes treated by a nickel salt (nickel chloride, Sigma) according to the method of Ermolli M, et al. “Nickel, cobalt and chromium-induced cytotoxicity and intracellular accumulation in human HaCaT keratinocytes” [Toxicology. 2001 Feb. 21; 159(1-2): 23-31] and compared to hydrocortisone (HOC; Sigma, France).
(§2) After a growth phase in medium enriched by fetal calf serum, the cells were treated with the nickel salt and with the test compounds. After 48 hours at 37° C., CO2=5%, the level of released GMCSF (ELISA method) and cell viability (MTT test) were determined.

[1] = test system: primary culture of human keratinocytes; experiment: Cell viability (MTT test) of nickel-treated human keratinocytes; conditions: nickel salt alone at 0.75 mM, 48 hours
Procedure: as §1, §2

[2] = first set, Ni 0.75 mM (=100) + test compound at 0.001%, mean +/- SEM on 3 separate assays

C[C@]12CCC(=O)C=C1CC[C@@H]1[C@@H]2[C@@H](O)C[C@@]2(C)[C@H]1CC[C@]2(O)C(=O)CO [HOC, hydrocortisone, reference compound]
GMCSF released (GMCSF; second set, Ni 0.75 mM (=100) + test compound at 1 μM, mean on 1 assay in triplicate): 52 percentage referring to control

O=C(/C=C/C=C/c1ccc2c(c1)OCO2)N1CCCCC1 [piperine, (E,E)-1-[5-(1,3-benzodioxol-5-yl)-1-oxo-2,4-pentadienyl]piperidine]
GMCSF released (GMCSF; [2]): 79 +/− 14 percentage referring to control
GMCSF released (GMCSF; first set, Ni 0.75 mM (=100) + test compound at 0.003%, mean +/- SEM on 3 separate assays): 29 +/− 13* percentage referring to control
GMCSF released (GMCSF; first set, Ni 0.75 mM (=100) + test compound at 0.003%, mean +/- SEM on 3 separate assays, listed as Piperine): significantly lowered

[Cl][Ni][Cl] [Nickel (Ni), nickel chloride]
MTT ([1]; first set, mean +/- SEM on 3 separate assays): 68 +/− 9 percentage referring to control
MTT ([1]; first set, mean +/- SEM on 3 separate assays, listed as nickel): distinctly decreased cell viability
MTT ([1]; second set, mean on 1 assay in triplicate): 33 percentage referring to control

COc1ccc(/C=C/c2cc(O)cc(O[C@@H]3O[C@H](CO)[C@@H](O)[C@H](O)[C@H]3O)c2)cc1O [rhapontin, 3,3′,5-Trihydroxy-4′-methoxystilbene 3-b-D-glucopyranoside]
GMCSF released (GMCSF; second set, Ni 0.75 mM (=100) + test compound at 0.01%, mean on 1 assay in triplicate): 72 percentage referring to control
GMCSF released (GMCSF; second set, Ni 0.75 mM (=100) + test compound at 0.01%, mean on 1 assay in triplicate, listed as Rhapontin): lowered

COc1cc([C@H]2Oc3cc([C@H]4Oc5cc(O)cc(O)c5C(=O)[C@@H]4O)ccc3O[C@@H]2CO)ccc1O [silybin]
GMCSF released (GMCSF; first set, Ni 0.75 mM (=100) + test compound at 0.0003%, mean +/- SEM on 3 separate assays): 88 +/− 19 percentage referring to control
GMCSF released (GMCSF; [2]): 48 +/− 12* percentage referring to control
GMCSF released (GMCSF; first set, Ni 0.75 mM (=100) + test compound at 0.001%, mean +/- SEM on 3 separate assays, listed as Silybin): significantly lowered
